Source: patent EP0454444A1, “Glutarimide derivatives and herbicides” (NISSAN CHEMICAL INDUSTRIES LTD., priority 1990, dated 1991)

How the values were obtained:
Experiment in all cases: Herbicidal effect test by soil treatment
Type in all cases: in vivo
[1] = tested on: annual sedge (Cyperus microiria); details: three weeks after spraying
Outline: (§1)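 Herbicide formulations, diluted with water, were applied across the soil surface right after sowing, with seeds lying roughly 1 cm deep in sterilized diluvial soil. Effects were judged at three weeks by comparing top fresh weights with untreated plants.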

[2] = tested on: cotton (Gossypium herbaceum); details: crop plant, three weeks after spraying
Outline: as §1

[3] = tested on: black nightshade (Solanum nigrum L.); details: three weeks after spraying
Outline: as §1

[4] = tested on: rice (Oryza sativa); details: crop plant, three weeks after spraying
Outline: as §1

[5] = tested on: rorippa ssp. (Rorippa atrovirens); details: three weeks after spraying
Outline: as §1

[6] = tested on: large crabgrass (Digitaria adscendens); details: three weeks after spraying
Outline: as §1

[7] = tested on: barnyardgrass (Echinochloa crusgalli); details: three weeks after spraying
Outline: as §1

[8] = tested on: corn (Zea mays); details: crop plant, three weeks after spraying
Outline: as §1

[9] = tested on: wheat (Triticum aestivum); details: crop plant, three weeks after spraying
Outline: as §1

[10] = tested on: hairly galinosoga (Galinsoga ciliat); details: three weeks after spraying
Outline: as §1

[11] = tested on: soybean (Glysine max); details: crop plant, three weeks after spraying
Outline: as §1

O=C1COc2cc(F)c(N3C(=O)CC(C(F)(F)F)CC3=O)cc2N1Cc1ccccc1 [1-27]
herbicidal effect, K (Cyperus microiria) ([1]; application amount 0.4 g/a): 5 (Growth control,rates of more than 90% (almost completely withered)) | herbicidal effect, K (Cyperus microiria) ([1]; application amount 0.8 g/a): 5 (Growth control,rates of more than 90% (almost completely withered)) | herbicidal effect, K (Cyperus microiria) ([1]; application amount 1.6 g/a): 5 (Growth control,rates of more than 90% (almost completely withered)) | herbicidal effect, C (Gossypium herbaceum) ([2]; application amount 0.4 g/a): 0 (Growth control rates of less than 5% (substantially no effect)) | herbicidal effect, C (Gossypium herbaceum) ([2]; application amount 0.8 g/a): 1 (Growth control rates of 5 to 20%) | herbicidal effect, C (Gossypium herbaceum) ([2]; application amount 1.6 g/a): 2 (Growth control rates of 20 to 40%) | herbicidal effect, H (Solanum nigrum L.) ([3]; application amount 0.4 g/a): 5 (Growth control,rates of more than 90% (almost completely withered)) | herbicidal effect, H (Solanum nigrum L.) ([3]; application amount 0.8 g/a): 5 (Growth control,rates of more than 90% (almost completely withered)) | herbicidal effect, H (Solanum nigrum L.) ([3]; application amount 1.6 g/a): 5 (Growth control,rates of more than 90% (almost completely withered)) | herbicidal effect, R (Oryza sativa) ([4]; application amount 0.4 g/a): 2 (Growth control rates of 20 to 40%) | herbicidal effect, R (Oryza sativa) ([4]; application amount 0.8 g/a): 3 (Growth control rates of 40 to 70%) | herbicidal effect, R (Oryza sativa) ([4]; application amount 1.6 g/a): 4 (Growth control rates of 70 to 90%) | herbicidal effect, I (Rorippa indica) ([5]; application amount 0.4 g/a): 5 (Growth control,rates of more than 90% (almost completely withered)) | herbicidal effect, I (Rorippa indica) ([5]; application amount 0.8 g/a): 5 (Growth control,rates of more than 90% (almost completely withered)) | herbicidal effect, I (Rorippa indica) ([5]; application amount 1.6 g/a): 5 (Growth control,rates of more than 90% (almost completely withered)) | herbicidal effect, M (Digitaria adscendens) ([6]; application amount 0.4 g/a): 5 (Growth control,rates of more than 90% (almost completely withered)) | herbicidal effect, M (Digitaria adscendens) ([6]; application amount 0.8 g/a): 5 (Growth control,rates of more than 90% (almost completely withered)) | herbicidal effect, M (Digitaria adscendens) ([6]; application amount 1.6 g/a): 5 (Growth control,rates of more than 90% (almost completely withered)) | herbicidal effect, N (Echinochloa crusgalli) ([7]; application amount 0.4 g/a): 5 (Growth control,rates of more than 90% (almost completely withered)) | herbicidal effect, N (Echinochloa crusgalli) ([7]; application amount 0.8 g/a): 5 (Growth control,rates of more than 90% (almost completely withered)) | herbicidal effect, N (Echinochloa crusgalli) ([7]; application amount 1.6 g/a): 5 (Growth control,rates of more than 90% (almost completely withered)) | herbicidal effect, T (Zea mays) ([8]; application amount 0.4 g/a): 0 (Growth control rates of less than 5% (substantially no effect)) | herbicidal effect, T (Zea mays) ([8]; application amount 0.8 g/a): 1 (Growth control rates of 5 to 20%) | herbicidal effect, T (Zea mays) ([8]; application amount 1.6 g/a): 4 (Growth control rates of 70 to 90%) | herbicidal effect, W (Triticum vulgare) ([9]; application amount 0.4 g/a): 2 (Growth control rates of 20 to 40%) | herbicidal effect, W (Triticum vulgare) ([9]; application amount 0.8 g/a): 4 (Growth control rates of 70 to 90%) | herbicidal effect, W (Triticum vulgare) ([9]; application amount 1.6 g/a): 5 (Growth control,rates of more than 90% (almost completely withered)) | herbicidal effect, D (Galinsoga ciliat) ([10]; application amount 0.4 g/a): 5 (Growth control,rates of more than 90% (almost completely withered)) | herbicidal effect, D (Galinsoga ciliat) ([10]; application amount 0.8 g/a): 5 (Growth control,rates of more than 90% (almost completely withered)) | herbicidal effect, D (Galinsoga ciliat) ([10]; application amount 1.6 g/a): 5 (Growth control,rates of more than 90% (almost completely withered)) | herbicidal effect, S (Glysine max) ([11]; application amount 0.4 g/a): 0 (Growth control rates of less than 5% (substantially no effect)) | herbicidal effect, S (Glysine max) ([11]; application amount 0.8 g/a): 0 (Growth control rates of less than 5% (substantially no effect)) | herbicidal effect, S (Glysine max) ([11]; application amount 1.6 g/a): 1 (Growth control rates of 5 to 20%)

O=C1COc2cc(F)c(N3C(=O)CC(C(F)(F)F)CC3=O)cc2N1CC1CCCCC1 [1-28]
herbicidal effect, K (Cyperus microiria) ([1]; application amount 1.6 g/a): 5 (Growth control,rates of more than 90% (almost completely withered)) | herbicidal effect, C (Gossypium herbaceum) ([2]; application amount 1.6 g/a): 0 (Growth control rates of less than 5% (substantially no effect)) | herbicidal effect, H (Solanum nigrum L.) ([3]; application amount 1.6 g/a): 5 (Growth control,rates of more than 90% (almost completely withered)) | herbicidal effect, R (Oryza sativa) ([4]; application amount 1.6 g/a): 0 (Growth control rates of less than 5% (substantially no effect)) | herbicidal effect, I (Rorippa indica) ([5]; application amount 1.6 g/a): 5 (Growth control,rates of more than 90% (almost completely withered)) | herbicidal effect, M (Digitaria adscendens) ([6]; application amount 1.6 g/a): 5 (Growth control,rates of more than 90% (almost completely withered)) | herbicidal effect, N (Echinochloa crusgalli) ([7]; application amount 1.6 g/a): 5 (Growth control,rates of more than 90% (almost completely withered)) | herbicidal effect, T (Zea mays) ([8]; application amount 1.6 g/a): 0 (Growth control rates of less than 5% (substantially no effect)) | herbicidal effect, W (Triticum vulgare) ([9]; application amount 1.6 g/a): 2 (Growth control rates of 20 to 40%) | herbicidal effect, D (Galinsoga ciliat) ([10]; application amount 1.6 g/a): 5 (Growth control,rates of more than 90% (almost completely withered)) | herbicidal effect, S (Glysine max) ([11]; application amount 1.6 g/a): 0 (Growth control rates of less than 5% (substantially no effect))

O=C1CC(C(F)(F)F)CC(=O)N1Cc1ccc(Cl)cc1 [1-31]
herbicidal effect, K (Cyperus microiria) ([1]; application amount 6.3 g/a): 5 (Growth control,rates of more than 90% (almost completely withered)) | herbicidal effect, C (Gossypium herbaceum) ([2]; application amount 6.3 g/a): 0 (Growth control rates of less than 5% (substantially no effect)) | herbicidal effect, H (Solanum nigrum L.) ([3]; application amount 6.3 g/a): 5 (Growth control,rates of more than 90% (almost completely withered)) | herbicidal effect, R (Oryza sativa) ([4]; application amount 6.3 g/a): 0 (Growth control rates of less than 5% (substantially no effect)) | herbicidal effect, I (Rorippa indica) ([5]; application amount 6.3 g/a): 5 (Growth control,rates of more than 90% (almost completely withered)) | herbicidal effect, M (Digitaria adscendens) ([6]; application amount 6.3 g/a): 4 (Growth control rates of 70 to 90%) | herbicidal effect, N (Echinochloa crusgalli) ([7]; application amount 6.3 g/a): 4 (Growth control rates of 70 to 90%) | herbicidal effect, T (Zea mays) ([8]; application amount 6.3 g/a): 0 (Growth control rates of less than 5% (substantially no effect)) | herbicidal effect, W (Triticum vulgare) ([9]; application amount 6.3 g/a): 0 (Growth control rates of less than 5% (substantially no effect)) | herbicidal effect, D (Galinsoga ciliat) ([10]; application amount 6.3 g/a): 5 (Growth control,rates of more than 90% (almost completely withered)) | herbicidal effect, S (Glysine max) ([11]; application amount 6.3 g/a): 0 (Growth control rates of less than 5% (substantially no effect))

CCOC(=O)Nc1cc(N2C(=O)CC(C(F)(F)F)CC2=O)c(F)cc1Cl [1-35]
herbicidal effect, K (Cyperus microiria) ([1]; application amount 1.6 g/a): 5 (Growth control,rates of more than 90% (almost completely withered)) | herbicidal effect, C (Gossypium herbaceum) ([2]; application amount 1.6 g/a): 0 (Growth control rates of less than 5% (substantially no effect)) | herbicidal effect, H (Solanum nigrum L.) ([3]; application amount 1.6 g/a): 5 (Growth control,rates of more than 90% (almost completely withered)) | herbicidal effect, R (Oryza sativa) ([4]; application amount 1.6 g/a): 0 (Growth control rates of less than 5% (substantially no effect)) | herbicidal effect, I (Rorippa indica) ([5]; application amount 1.6 g/a): 5 (Growth control,rates of more than 90% (almost completely withered)) | herbicidal effect, M (Digitaria adscendens) ([6]; application amount 1.6 g/a): 5 (Growth control,rates of more than 90% (almost completely withered)) | herbicidal effect, N (Echinochloa crusgalli) ([7]; application amount 1.6 g/a): 4 (Growth control rates of 70 to 90%) | herbicidal effect, T (Zea mays) ([8]; application amount 1.6 g/a): 0 (Growth control rates of less than 5% (substantially no effect)) | herbicidal effect, W (Triticum vulgare) ([9]; application amount 1.6 g/a): 1 (Growth control rates of 5 to 20%) | herbicidal effect, D (Galinsoga ciliat) ([10]; application amount 1.6 g/a): 5 (Growth control,rates of more than 90% (almost completely withered)) | herbicidal effect, S (Glysine max) ([11]; application amount 1.6 g/a): 0 (Growth control rates of less than 5% (substantially no effect))
